Measured values taken from patent publication US6541483B2, “Acridone-derived compounds useful as antineoplastic and antiretroviral agents” (The United States of America as represented by the …, priority 1996, dated 2003).
Where two headings read alike, the source gives them in different places.

How the values were obtained:
[1] = target: p7 nucleocapsid protein zinc fingers (Human immunodeficiency virus type 1 group M subtype B, UniProt P04591); assay: p7NC zinc finger fluorescence assays (TSQ, Trp37); type: biochemical, HIV-1
Description: (§1) Based on the findings thus far our efforts have focused on biological assays of the temacrazine congener.

[2] = system: HIV-1RF; assay: nude mouse hollow fiber model of HIV-1 replication; type: in vivo, nude mice; conditions: 40 mg/Kg q8h intraperitoneally
Description: The novel mechanism of action of temacrazine and its broad range of activity against HIV-1 and its high therapeutic indexes led us to assess its in vivo and anti-viral properties in a nude mouse hollow fiber model of HIV-1 replication. Briefly, CEM-SS cells are infected with HIV-1RF and placed into hollow fibers and implanted intraperitoneal or subcutaneously into nude mice. […] Similarly, mice are being treated by oral and intravenous administration of temacrazine. Peritoneal washes and serum samples were collected and p24 expression determined by antigen capture. Intraperitoneal administration of temacrazine reduced the amount of detectable p24 in peritoneal washes by 5 to 10 fold independently of the dosage schedule. […] Thus, temacrazine reduces HIV-1 replication in vivo.

[3] = system: HIV-1; assay: XTT cytoprotection assay in CEM-SS cells (antiviral EC50); type: cell-based; conditions: for cytoprotective activity: HIV-1-infected CEM SS leukemia cells; for XTT Assay EC50: Table 1
Description: (§2) Briefly, the infected cells in culture are killed by the virus, and the cytotoxicity is detected by the formation of color due to the […] of a formazan dye (XTT) by enzymes released by the dying cells (Weislow et al., J. Natl. Cancer Inst. 81:577-586, 1989). An effective antiviral drug is able to protect the infected cells from cytotoxicity by inhibiting some vital function of the virus. […] FIGS. 4 and 5 show the cytoprotective activity of WMC26 and WMC42. Since many drugs can also be toxic to cells in their own right, a parallel experiment is carried out wherein uninfected cells are treated with the drugs until a concentration is reached where the cells are killed by the action of the drug.
(§3) As a result of these preliminary data, additional experiments were carried out to establish the antiviral activity in other cell lines, using a variety of protocols. The preliminary experiments in lymphocytes were confirmed using infected macrophages. Much more extensive experiments were carried out in HIV-1-infected CEM SS leukemia cells. […] However, two derivatives were found which had low antileukemic activity while maintaining high antiviral activity. […] This gives a therapeutic index of more than 3 orders of magnitude. The corresponding therapeutic index for WMC50 is about 100-200, which is quite acceptable. Additional experiments were carried out on WMC-70. […] Further, WMC-70 appears to affect post-transcription events in the virus. […] While the inhibition of integration appears to be the principal mechanism by which this compound exerts its antiviral activity, there are perhaps other mechanisms which are also involved in the therapeutic action of this drug, and by extension, of other antiviral drugs of this class.
(§4) The antiviral properties of the WMC series of compounds were evaluated. First, all compounds were tested for their ability to inhibit HIV-1 replication in cell culture using the XTT cytoprotection assay. This assay measures the concentration-dependent capacity of compounds to protect CEM-SS cells from the cytopathic effects of HIV-1. […] Thus, temacrazine was the most efficacious compound in the XTT cytoprotection assay. This conclusion was also reached when the compounds were tested for anti-HIV-1 activity against HIV-1ADA in human monocyte/macrophage cultures (Table 1).

[4] = system: CEM-SS cells; assay: XTT assay toxicity in CEM-SS cells (IC50); type: cell-based; conditions: Homo sapiens, CEM-SS
Description: as §2, §3, §4

[5] = system: HIV-1ADA; assay: anti-HIV-1 activity in monocyte/macrophage cultures; type: cell-based; conditions: Human immunodeficiency virus 1, read-out: Mo/Mφ EC50
Description: as §4

[6] = system: human monocyte/macrophage cultures; assay: toxicity in monocyte/macrophage cultures; type: cell-based; conditions: Homo sapiens, read-out: Mo/Mφ IC50
Description: as §4

[7] = system: attachment of HIV-1RF to CEM-SS cells; assay: attachment of virions to CEM-SS cells (cell-bound p24 ELISA); type: cell-based; conditions: Human immunodeficiency virus 1, CEM-SS, read-out: Attachment ID50
Description: as §1

[8] = target: HIV-1 reverse transcriptase (Human immunodeficiency virus type 1 group M subtype B, UniProt P04585); assay: reverse transcriptase enzyme activity; type: biochemical
Description: as §1

[9] = system: HIV-1; assay: XTT cytoprotection assay in HIV-1 infected peripheral blood lymphocytes; type: cell-based; conditions: for cytoprotective activity: HIV-1 infected lymphocytes versus uninfected cells; for therapeutic index: lymphocyte cytoprotection assay
Description: These compounds and several others were then examined in a cytoprotection assay involving peripheral blood lymphocytes which had been infected with HIV-1.
as §2

[10] = target: HIV-1 integrase (Human immunodeficiency virus type 1 group M subtype B, UniProt P04585); assay: in vitro integration and disintegration with full length purified integrase; type: biochemical; set-up: utilized the full length purified HIV-1 integrase; conditions: full length purified HIV-1 integrase
[11] = system: leukemia; conditions: Cholody et al. 1995; cited from earlier work
[12] = system: HIV-1 LTR-directed chloramphenicol acetyltransferase (CAT) activity; assay: LTR-directed CAT activity in BF-24 cells; type: cell-based; conditions: 24 h, temacrazine up to 5 μM
Description: Initiation and regulation of HIV-1 transcription requires a complex series of interactions with cellular transcription factors, such as NFkB, SP-1 and AP-1, and the participation of cellular factors in the transcriptional complex. In addition, the post-integrative model used here requires TNFα stimulated U1 and ACH-2 cells, this model requires not only the participation of the NFkB transcriptional complex, and also components of the TNFα signaling pathway. In order to rule out that temacrazine was non-specifically effecting transcription or down-regulating replication by interfering with the TNFα signal pathway, LTR-directed chloramphenicol acetyltransferase (CAT) activity was measured in BF-24 cells. BF-24 cells are derived from the THP-1 monocytic cell line and carry a stably integrated CAT gene under the transcriptional control of the HIV-1 LTR (S. Schwartz, et al., Proc. Natl. Acad. Sci. USA 86:7200 (1989); B. K. Felber, et al., Science 239:184 (1988)). The LTR in this monocytic cell line is inducible by IL-6, PMA and TNFα, and produces enzymatically active chloramphenicol transferase (“CAT”). […]
CAT activity was determined using a fluorescent Bodipy conjugated chloramphenicol after 18 h of reaction with 50 μg of protein extract containing Acetyl CoA.

[13] = system: cell lines derived from tumor xenografts; assay: clonogenic assay, mean over all tumor xenograft lines; type: cell-based, human; conditions: all of the lines tested
Description: (§5) The activity of compound (4) was tested against several tumor xenografts in vitro. The experiments was carried out on cell lines derived from these tumors, utilizing a standard clonogenic assay protocol.

[14] = system: gastric carcinoma GFX (251/14); assay: clonogenic assay, gastric carcinoma line; type: cell-based, human
Description: as §5

[15] = system: mammary tumor MACL (MCF7X/13); assay: clonogenic assay, mammary tumor line; type: cell-based, human
Description: as §5

[16] = system: melanoma MEXF (514/12); assay: clonogenic assay, melanoma line; type: cell-based, human
Description: as §5

[17] = system: renal carcinoma RXF (1220/5); assay: clonogenic assay, renal carcinoma line; type: cell-based, human
Description: as §5

[18] = system: prostate cancer cell line PRXF (PX2M/27), PC3M; assay: clonogenic assay, prostate cancer line PC3M; type: cell-based, human
Description: as §5

[19] = system: prostate cancer cell line PRXF (DU145X/2); assay: clonogenic assay, prostate cancer line DU145X; type: cell-based, human
Description: as §5

O=S1(=O)C[C@H](O)[C@H](O)CS1 [NSC 624151]
NCp7 TSQ (Increase in RFU/90 min) [1]: 17 (NSC 624151) RFU/90 min | NCp7 Trp37 (Decrease in RFU/10 min) [1]: 145 (NSC 624151) RFU/10 min

Nc1ccn([C@H]2CC[C@@H](CO)O2)c(=O)n1 [ddC, reference compound]
Peritoneal Wash p24, mean [2]: 7 pg p24 | Serum p24, mean [2]: 87 pg p24

O=c1c2ccccc2n2cnc3ccc(NCCCN4CCN(CCCNc5ccc6nnn7c8ccccc8c(=O)c5c67)CC4)c1c32 [Compound 682404]
therapeutic index ([3]; CEM SS cells): 100-200 | cytoprotective activity [3]: cytoprotective at very low concentrations | EC50 ([3]; Human immunodeficiency virus 1, CEM-SS, read-out: XTT Assay EC50): 0.41 nM | EC50 ([3]; Human immunodeficiency virus 1, CEM-SS cells, read-out: EC50 antiviral value, XTT cytoprotection assay): 0.41 nM | IC50 ([4]; read-out: IC50 toxicity value, XTT assay): 158 nM | IC50 ([4]; read-out: XTT Assay IC50): 158 nM | EC50 [5]: 100 nM | IC50 [6]: 10000 nM | IC50 [7]: > 100000 nM | IC50 [8]: 35000 nM

CN(CCCNc1ccc2ncn3c4ccccc4c(=O)c1c23)CCCNc1ccc2nnn3c4ccccc4c(=O)c1c23 [WMC42]
cytoprotective activity [9]: able to protect the infected lymphocytes at concentrations far lower than those which resulted in drug induced killing | therapeutic index [9]: very good therapeutic indices | inhibition of integration and disintegration steps [10]: inhibited both the integration and disintegration steps

CN(CCCNc1ccc2ncn3c4ccccc4c(=O)c1c23)CCCNc1ccc2ncn3c4ccccc4c(=O)c1c23 [WMC26]
cytoprotective activity [9]: able to protect the infected lymphocytes at concentrations far lower than those which resulted in drug induced killing | therapeutic index [9]: very good therapeutic indices | cytoprotective activity [3]: could not be shown to be cytoprotective | cytotoxicity to leukemia [11]: very potently (nanomolar levels) cytotoxic | inhibition of integration and disintegration steps [10]: inhibited both the integration and disintegration steps

CC(C)OC(=O)c1cc(NC(=S)OC(C)C)ccc1Cl [UC38, reference compound]
IC50 ([8]; rCdG Template/primer, control compound, read-out: I50 RT Enzyme Activity): 6 nM

Cc1cn([C@H]2C[C@H](N=[N+]=[N-])[C@@H](CO)O2)c(=O)[nH]c1=O [AZT, reference compound]
CAT induction by TNFα [12]: inactive

Cc1cn([C@H]2C[C@H](N=[N+]=[N-])[C@@H](CO[P@](=O)(O)O[P@](=O)(O)OP(=O)(O)O)O2)c(=O)[nH]c1=O [Compound A2TTP, reference compound]
IC50 ([8]; rAdT Template/primer, control compound, read-out: I50 RT Enzyme Activity): 27 nM

O=c1c2ccccc2n2cnc3ccc(NCCCN4CCN(CCCNc5ccc6ncn7c8ccccc8c(=O)c5c67)CC4)c1c32 [Compound 4, 1,4-bis[3-[(6-oxo-6H-imidazo[4,5,1-de]-acridin-5-yl)amino]propyl]piperazine]
mean IC70 (concentration resulting in 70% killing of the tumor cells) [13]: 2.3 µg/mL | sensitivity to the drug [14]: sensitive at the median dose | sensitivity to the drug [15]: over twice the median dose | sensitivity to the drug [16]: completely insensitive | sensitivity to the drug [17]: completely insensitive | IC70 ([18]; PC3M): less than 1 nanogram/mL | sensitivity to the drug ([18]; PRXF PX2M/27): very sensitive | sensitivity to the drug [19]: very sensitive

CN(CCCNc1ccc2ncn3c4ccccc4c(=O)c1c23)CCCNc1ccc2nnn3c4ccccc4c(=O)c1c23 [Compound 682402]
XTT Assay EC50 ([3]; CEM-SS cells): Inactive | EC50 [5]: 160 nM | IC50 [6]: 10000 nM | IC50 [7]: > 100000 nM | IC50 [8]: > 100000 nM

CN(CCCNc1ccc2nnn3c4ccccc4c(=O)c1c23)CCCNc1ccc2nnn3c4ccccc4c(=O)c1c23 [Compound 682403]
XTT Assay EC50 ([3]; CEM-SS cells): Inactive

CN(CCCNc1ccc2ncn3c4ccccc4c(=O)c1c23)CCCNc1ccc2ncn3c4ccccc4c(=O)c1c23 [Compound 682401]
XTT Assay EC50 ([3]; CEM-SS cells): Inactive | EC50 [5]: 50 nM | IC50 [6]: 1000 nM | IC50 [7]: > 100000 nM | IC50 [8]: > 100000 nM
